Results taken from US8629251B2, “Specific detection and quantification of phosphatidic acid using an Arabidopsis trigalactosyldiacylglycerol-4 (TGD4) protein” (Board of Trustees of Michigan State University, priority 2008, dated 2014).

Molecular target: T1, Arabidopsis TGD2, DsRed-TGD2C T5 (residues 119-300, SEQ ID NO:28) (Arabidopsis thaliana, UniProt Q9LTR2)
T1 sequence (Q9LTR2 119-300): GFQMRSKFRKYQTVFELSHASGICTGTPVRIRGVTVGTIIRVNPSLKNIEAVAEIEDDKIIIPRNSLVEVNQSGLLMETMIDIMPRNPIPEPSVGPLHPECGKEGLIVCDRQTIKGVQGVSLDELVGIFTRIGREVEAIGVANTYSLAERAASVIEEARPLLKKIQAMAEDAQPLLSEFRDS
Experiment: Liposome-association assay, TGD2C T5 (119-300)
Assay type: binding
Settings: FIG. 3C
Description: The liposome association assay was performed as previously reported. (31). Briefly, lipids (dioleoyl-phosphatidylcholine, DOPC or dioleoyl-PA, DOPA) were incubated in TBS (50 mM Tris-HCl, pH 7; 0.1 M NaCl) at 37° C. for an hour followed by vigorous vortexing for 5 min. The liposomes were precipitated at 20,000 g and washed twice with ice-cold TBS.
Liposomes (200 μg) were mixed with purified DsRed-TGD2 fusion protein and TBS to make a final 100 μL solution. The mixture was incubated at 30° C. for 30 min and washed twice with ice-cold TBS by centrifugation at 20,000 g at 4° C. The liposome pellet mixed with sample buffer was analyzed by SDS-PAGE (28). Immuno-detection of the His-tagged protein was accomplished using the above mentioned Penta-His antibody at 1:15,000 and the anti mouse antibody at 1:75,000 dilution.
The protein band was visualized by chemiluminescent detection kit from Sigma. The autoradiography film was scanned, distinct protein bands were quantified using computer software Multi Gauge V3.0 (Fujifilm USA, Valhalla, N.Y.) and resulted data were plotted and analyzed by OriginPro8 (Origin lab corporation, Northampton, Mass.).

## CCCCCCCC/C=C\CCCCCCCC(=O)OC[C@H](COP(=O)(O)O)OC(=O)CCCCCCC/C=C\CCCCCCCC [PA, phosphatidic acid]
  PA binding: strong binding
